Consider three compounds from patent publication US7915242B2, “Vitamin D receptor antagonists and their use in treating asthma” (Wisconsin Alumni Research Foundation, priority 2004, dated 2011).

Each structure is given as a SMILES string. “Also recorded” adds a separate entry of the source.

One assay relates to Brown Norway rats. Briefly: Ovalbumin-induced allergic asthma, BALF cell counts. The class given is in vivo, rat. As to conditions: aerosolized 500 ng/Kg on Days 14 and 16. On the procedure: 6-7 week old Brown Norway male rats were obtained from Harlan Sprague-Dawley (Madison, Wis.) and housed in shoebox cages. Animals were provided a purified rodent diet prepared in-house containing 0.47% calcium and 0.3% phosphorus, and water ad libitum. The diet was supplemented with 1.6 IU vitamin D3/g. Rats were sensitized on Days 0 and 7 with a 1 mL intraperitoneal (I.P.) injection of 1 mg/mL OVA in phosphate-buffered saline (PBS) precipitated 1:1 with Imject Alum (PIERCE, IL). Control animals were sensitized with PBS. The animals were then challenged with aerosolized OVA [1% (w/v)] or aerosolized PBS (control) on Days 14 and 16. This OVA-sensitization and -challenge protocol has been used extensively to generate asthma symptoms in rats. Aerosolized-PBS (200 μL) or aerosolized-OVA (200 μL) was delivered by using the Microsprayer Syringe Model 1C (PennCentury, Philadelphia, Pa.). Aerosolized-vehicle [aqueous solution containing 30% (v/v) propylene glycol and 5% ethanol], or aerosolized-1,25(OH)2D3 (500 ng/Kg of body weight) was administered on Days 14 and 16. There were 4 groups in the study. Group 1: Sensitized and challenged with PBS, no treatment. Group 2: Sensitized and challenged with OVA, no treatment. Group 3: Sensitized and challenged with OVA, vehicle treatment on Days 14 and 16. Group 4: Sensitized and challenged with OVA, 1,25(OH)2D3 treatment on Days 14 and 16. At the end of the study, 17 days after the first I.P. injection, lungs were lavaged five times with 5 mL/each of calcium- and magnesium-free PBS containing 0.05 mM EDTA (ethylenediamine tetraacetic acid). The lavage fluid was centrifuged at 1,000×g for 10 minutes. The supernatant was removed, and the cell pellet was resuspended in 1 mL cold PBS. Total cell counts in bronchoalveolar lavage fluid (BALF) was performed using a hemocytometer. Slides of BALF were prepared by cytospin-2 cytocentrifugation of an aliquot of the cell suspension, and a differential cell count to determine the number of leukocytes was performed after staining with Diff-Quick (IMED, Inc., CA).

For the next assay, the system named is BALBc mice. Briefly: Asthma model, ovalbumin-sensitized mice. The class given is in vivo, mouse. As to conditions: preliminary work. The protocol: The fourth test performed on the analogs is treatment using an asthma model. For this test, BALBc mice are injected for 7 days with 10 micrograms of ovalbumin together with alum to sensitize the animals. These are given by intraperitoneal injection and at the end of 7 days, the asthmatic reaction to an inhaled dose of ovalbumin is examined. In this test, the ovalbumin as a 0.2% solution is delivered by nebulizer to the mouse. Air flow measures are carried out as described by Isenberg-Feig et al. in Current Allergy and Asthma Reports, 3:70-78 (2003) which is hereby incorporated by reference in its entirety and for all purposes as if fully set forth herein. Furthermore, the lungs are removed and sectioned for analysis. The degree of invasion of eosinophils into the bronchial tissue is used as a non-subjective measurement of asthmatic response. After the animals are sensitized and given the expected responses to ovalbumin, the animals are subjected to an aerosol that includes either a vitamin D antagonist of the invention or 1α,25-(OH)2D3. After exposure to the vitamin D antagonist of the invention or the 1α,25-(OH)2D3, the animals will be exposed to a nebulized dose of 0.2% ovalbumin. The presence of the antagonist will be found to block the asthmatic response to the inhaled ovalbumin. […]

The subject of the next assay is mouse model of asthma. To be noted: Matheu et al., J Allergy Clin Immunol 112:585, 2003; cited from earlier work.
Assay [1] concerns the target T1, full-length recombinant rat vitamin D receptor (Rattus norvegicus, UniProt P13053).
T1 construct: Full-length recombinant rat receptor is/was expressed in E. coli BL21(DE3) Codon Plus RIL cells; histidine tag (C); made in house; host or cells: E. coli BL21(DE3) Codon Plus RIL
T1 sequence (P13053 1-423): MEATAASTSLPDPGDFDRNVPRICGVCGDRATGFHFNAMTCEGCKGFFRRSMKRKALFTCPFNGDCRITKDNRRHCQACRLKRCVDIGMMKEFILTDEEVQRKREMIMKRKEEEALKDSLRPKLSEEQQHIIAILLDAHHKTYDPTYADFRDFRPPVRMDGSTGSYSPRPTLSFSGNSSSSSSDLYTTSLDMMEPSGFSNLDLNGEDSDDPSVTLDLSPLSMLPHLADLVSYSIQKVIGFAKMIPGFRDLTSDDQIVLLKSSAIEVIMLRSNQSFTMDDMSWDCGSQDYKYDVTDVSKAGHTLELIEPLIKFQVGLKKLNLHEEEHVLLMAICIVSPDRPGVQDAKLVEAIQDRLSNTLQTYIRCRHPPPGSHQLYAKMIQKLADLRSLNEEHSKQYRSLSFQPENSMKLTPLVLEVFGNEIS
The assay is described as follows: Vitamin D receptor binding assay, competition with [3H]-1,25(OH)2D3. As to conditions: relative to 1α,25-dihydroxyvitamin D3; FIG. 1. The source says:
Full-length recombinant rat receptor is/was expressed in E. coli BL21(DE3) Codon Plus RIL cells and purified to homogeneity using two different column chromatography systems. The first system is/was a nickel affinity resin that utilizes the C-terminal histidine tag on this protein. The protein that is/was eluted from this resin is/was further purified using ion exchange chromatography (S-Sepharose Fast Flow). Aliquots of the purified protein are/were quick frozen in liquid nitrogen and stored at −80° C. until use. For use in binding assays, the protein is/was diluted in TEDK50 (50 mM Tris, 1.5 mM EDTA, pH 7.4, 5 mM DTT, 150 mM KCl) with 0.1% Chaps detergent. The receptor protein and ligan concentration is/was optimized such that no more than 20% of the added radiolabeled ligand is/was bound to the receptor.
Unlabeled ligands are/were dissolved in ethanol and the concentrations determined using UV spectrophotometry (1,25(OH)2D3: molar extinction coefficient=18,200 and λmax=265 nm; Analogs: molar extinction coefficient=42,000 and λmax=252 nm). […]
Radiolabeled and unlabeled ligands are/were added to 100 mcl of the diluted protein at a final ethanol concentration of ≦10%, mixed and incubated overnight on ice to reach binding equilibrium. […] Total binding is/was determined from the tubes containing only radiolabeled ligand.

Assay [2] has as its system Human promyelocytic leukemia (HL60) cells. Briefly: HL-60 cellular differentiation test (NBT reduction). To be noted: relative to 1α,25-dihydroxyvitamin D3; FIGS. 2-3. It counts as cell-based. The protocol: The compounds of the invention are/were dissolved in ethanol and the concentrations are/were determined using UV spectrophotometry. Serial dilutions are/were prepared so that a range of drug concentrations can be tested without changing the final concentration of ethanol (≦0.2%) present in the cell cultures.
Antagonism is/was tested by adding a combination of 1,25(OH)2D3 and the putative antagonist in the same well keeping the final ethanol concentration the same.
Human promyelocytic leukemia (HL60) cells are/were grown in RPMI-1640 medium containing 10% fetal bovine serum. The cells are/were incubated at 37° C. in the presence of 5% CO2.
HL60 cells are/were plated at 1.2×10^5 cells/mL. Eighteen hours after plating, cells in duplicate are/were treated with compound of the invention in ethanol. Four days post-dose, the cells are/were harvested and a nitro blue tetrazolium reduction assay is/was performed (Collins et al., J. Exp. Med. 149, 969-974, Appendix A (1979)). The percentage of differentiated cells is/was determined by counting a total of 200 cells and recording the number that contained intracellular black-blue formazan deposits. Verification of differentiation to monocytic cells is/was determined by measuring phagocytic activity. All drug concentrations are/were tested in duplicate.

Assay [3] relates to vitamin D 24-hydroxylase (CYP24) promoter luciferase reporter. Briefly: Reporter gene assay, CYP24 promoter-luciferase in ROS-17/2.8 osteoblast cells. The class given is cell-based. To be noted: Ros17/2.8 (bone) cells; FIG. 4. The source says: A reporter gene assay is/was used in which the promoter to the vitamin D 24-hydroxylase, i.e. CYP24 is/was placed in front of a luciferase reporter and is/was permanently transfected into ROS-17/2.8 osteoblast cell cultures as previously described (see Arbour, N. C., T. K. Ross, C. Zierold, J. M. Prahl, and H. F. DeLuca. A Highly Sensitive Method for Large-Scale Measurements of 1,25-Dihydroxyvitamin D. Analyt. Biochem. 255, 148-154, (1998) which is hereby incorporated by reference in its entirety and for all purposes as if fully set forth herein). These cells are/were grown to almost confluency at which time the analog or the standard 1α,25-(OH)2D3 is/was added. After 4 hours of incubation, the cells are/were ruptured and luciferase is/was measured by the methods provided by the Promega Kit. These experiments show the level of activity of the vitamin D analogs of the invention at transcription.
The phrase “RLU” refers to relative luciferase units.
A general note: Reporter assays use an easily measured gene product as a stand-in for the process of interest.

Assay [4] shares this test system. Briefly: Competition for transcription activity, analog plus 1,25(OH)2D3 in the reporter gene assay. As to conditions: with 1α,25-dihydroxyvitamin D3; FIGS. 5-6. It counts as cell-based. The protocol: Antagonism is/was tested by adding a combination of 1,25(OH)2D3 and the putative antagonist in the same well keeping the ethanol concentration the same.
The third test that is performed is competition for transcription activity. Again, the ROS-17/2.8 osteoblast cells that contain the reporter gene system described above are employed. A dose-response curve is constructed with 1α,25-(OH)2D3 and another 1α,25-(OH)2D3 dose response curve is prepared with increasing concentrations of antagonist or analogs of the invention. Analogs that prevent 1α,25-(OH)2D3-induced transcription, are defined using this technique as either weak agonist or a complete antagonist of the VDR for 1α,25-(OH)2D3.

In assay [5] the test system is Sprague-Dawley rats. The assay is described as follows: Bone calcium mobilization (serum calcium). To be noted: four ip doses, even at 2,900 pmol/day, FIG. 7. The class given is in vivo, rat. The protocol: (§1) Male, weanling Sprague-Dawley rats are/were placed on Diet 11 (0.47% Ca) diet +AEK for one week followed by Diet 11 (0.02% Ca) +AEK for 3 weeks. The rats are/were then switched to a diet containing 0.47% Ca for one week followed by two weeks on a diet containing 0.02% Ca. Dose administration began during the last week on 0.02% calcium diet. Four consecutive ip doses are/were given approximately 24 hours apart. Twenty-four hours after the last dose, blood is/was collected from the severed neck, and the concentration of serum calcium is/was determined as a measure of bone calcium mobilization. The first 10 cm of the intestine is/was also collected for intestinal calcium transport analysis using the everted gut sac method.
(§2) Antagonism is/was tested by administering a combination of 1,25(OH)2D3 and the putative antagonist to the animal simultaneously.

The subject of assay [6] is Sprague-Dawley rats. Briefly: Intestinal calcium transport (everted gut sac). The class given is in vivo, rat. As to conditions: four ip doses, FIG. 8. On the procedure: as §1, §2

Regarding `C=C1/C(=C\C=C2/CCC[C@]3(C)[C@@H]([C@H](C)CCCC(C)(C)O)CC[C@@H]23)C[C@@H](O)C[C@@H]1O` [1,25(OH)2D3, 1α,25-dihydroxycholecalciferol], in the assay with Brown Norway rats (FIG. 9), the “total cell counts in BALF after OVA challenge” value was “reduced; also recorded: inhibits the OVA (ovalbumin)-mediated increase in total number of cells in BALF”. For the same compound, in the assay with Brown Norway rats (FIG. 11), the “number of eosinophils in BALF after OVA challenge” value is “increased OVA-induced eosinophils recruitment; also recorded: increases the OVA-induced eosinophils count in BALF compared to the control”. The “number of macrophages in BALF after OVA challenge” value in the assay with Brown Norway rats (versus control (PBS), FIG. 10) is given as “decreased the number of macrophages; also recorded: decreases the number of macrophages compared to the control”. For the same compound, the “severity of the asthmatic response to ovalbumin” value in the assay on BALBc mice was “increases the severity of the asthmatic response to ovalbumin”. Further, in the assay on mouse model of asthma, the “asthma symptoms in a mouse model of asthma” value is “both triggers and exacerbates asthma symptoms”.

For the compound `C=C1[C@H](O)CC(=C/C=C2\CCC[C@]3(C)[C@@H]([C@H](C)/C=C/[C@@H](OCCCC)C4(C(=O)OCCCC)CC4)CC[C@@H]23)C[C@H]1O` [CN-67, (22E)-(24R)-24-butoxy-25-carbobutoxy-2-methylene-26,27-cyclo-22-dehydro-1α-hydroxy-19-norvitamin D3], the “binding to the vitamin D receptor (competition with [3H]-1,25-(OH)2-D3)” value in assay [1] was “significantly less active than 1α,25-dihydroxyvitamin D3”. Further, the “induction of differentiation of HL-60 cells” value in assay [2] is listed as “less active than 1α,25-dihydroxyvitamin D3”. Moreover, the “in vitro transcription activity (reporter gene)” value in [3] is listed as “does not appear to be active in causing transcription”. In assay [4], the “antagonistic activity on transcription when administered along with the native hormone” value was “appears to exhibit antagonistic activity”.

In the case of `C=C1[C@H](O)CC(=C/C=C2\CCC[C@]3(C)[C@@H]([C@H](C)/C=C/[C@@H](O)C4(C(=O)OCCCC)CC4)CC[C@@H]23)C[C@H]1O` [OU-72, (22E)-(24R)-25-carbobutoxy-2-methylene-26,27-cyclo-22-dehydro-1α,24-dihydroxy-19-norvitamin D3], the “binding to the vitamin D receptor (competition with [3H]-1,25-(OH)2-D3)” value in [1] is “approximately equal to the native hormone”. Moreover, the “induction of differentiation of HL-60 cells” value in assay [2] is given as “less active than 1α,25-dihydroxyvitamin D3”. In assay [3], the “in vitro transcription activity (reporter gene)” value is given as “active in stimulating transcription”. For the same compound, in [4], the “antagonistic activity on transcription when administered along with the native hormone” value was “shows antagonistic activity”. In addition, in the assay with Sprague-Dawley rats [5], the “bone calcium mobilization (calcemic activity)” value is given as “no calcemic activity”. Further, the intestinal calcium transport entry with Sprague-Dawley rats [6] is listed as “retain the ability to elevate intestinal calcium transport”.
